In PubChem BioAssay (NCI):
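Dose response: 5 concentrations. Exposure: 48 h. Format: 96-well plates. Endpoint: linear interpolation; highest concentration if not reached. Definition used: TGI = concentration required for complete inhibition of growth.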

Experiments:
Assay in all cases: NCI tumour cell line growth inhibition, 48 h
SF-539 CNS = tested on: SF-539 CNS
SR leukemia = tested on: SR leukemia
786-0 renal = tested on: 786-0 renal
MDA-N = tested on: MDA-N
BT-549 breast = tested on: BT-549 breast
NCI/ADR-RES ovarian = tested on: NCI/ADR-RES ovarian
HS 578T breast = tested on: HS 578T breast
CAKI-1 renal = tested on: CAKI-1 renal
NCI-H226 lung = tested on: NCI-H226 lung
SK-OV-3 ovarian = tested on: SK-OV-3 ovarian
HOP-62 NSCLC = tested on: HOP-62 NSCLC
SF-268 CNS = tested on: SF-268 CNS
K-562 leukemia = tested on: K-562 leukemia
UO-31 renal = tested on: UO-31 renal
A498 renal = tested on: A498 renal
EKVX NSCLC = tested on: EKVX NSCLC
MDA-MB-435 = tested on: MDA-MB-435
SN12C renal = tested on: SN12C renal
OVCAR-3 ovarian = tested on: OVCAR-3 ovarian
M14 melanoma = tested on: M14 melanoma
OVCAR-5 ovarian = tested on: OVCAR-5 ovarian
HT29 colon = tested on: HT29 colon
NCI-H23 lung = tested on: NCI-H23 lung
SK-MEL-28 melanoma = tested on: SK-MEL-28 melanoma
OVCAR-4 ovarian = tested on: OVCAR-4 ovarian
NCI-H460 lung = tested on: NCI-H460 lung
OVCAR-8 ovarian = tested on: OVCAR-8 ovarian
RPMI-8226 leukemia = tested on: RPMI-8226 leukemia
NCI-H522 lung = tested on: NCI-H522 lung
HCT-116 colon = tested on: HCT-116 colon
SK-MEL-5 melanoma = tested on: SK-MEL-5 melanoma
SNB-75 CNS = tested on: SNB-75 CNS
SK-MEL-2 melanoma = tested on: SK-MEL-2 melanoma
LOX IMVI melanoma = tested on: LOX IMVI melanoma
UACC-257 melanoma = tested on: UACC-257 melanoma
HCT-15 colon = tested on: HCT-15 colon
PC-3 prostate = tested on: PC-3 prostate
MALME-3M melanoma = tested on: MALME-3M melanoma
T-47D breast = tested on: T-47D breast
HCC-2998 colon = tested on: HCC-2998 colon
COLO 205 colon = tested on: COLO 205 colon
DU-145 prostate = tested on: DU-145 prostate
SW-620 colon = tested on: SW-620 colon
SNB-19 CNS = tested on: SNB-19 CNS
UACC-62 melanoma = tested on: UACC-62 melanoma
SF-295 CNS = tested on: SF-295 CNS
HL-60(TB) leukemia = tested on: HL-60(TB) leukemia
IGROV1 ovarian = tested on: IGROV1 ovarian
U251 CNS = tested on: U251 CNS
MCF7 breast = tested on: MCF7 breast
KM12 colon = tested on: KM12 colon
RXF 393 renal = tested on: RXF 393 renal
A549 NSCLC = tested on: A549 NSCLC
CCRF-CEM leukemia = tested on: CCRF-CEM leukemia
MOLT-4 leukemia = tested on: MOLT-4 leukemia
TK-10 renal = tested on: TK-10 renal
ACHN renal = tested on: ACHN renal
HOP-92 NSCLC = tested on: HOP-92 NSCLC
MDA-MB-231 breast = tested on: MDA-MB-231 breast

## O=C1c2ccccc2-[n+]2ccc3c([nH]c4ccccc43)c21
SF-539 CNS
  TGI: 1450 nM
SR leukemia
  TGI: 846 nM
786-0 renal
  TGI: 2580 nM
MDA-N
  TGI: 318 nM
BT-549 breast
  TGI: 4920 nM
NCI/ADR-RES ovarian
  TGI: 4610 nM
HS 578T breast
  TGI: > 31600 nM
CAKI-1 renal
  TGI: 2070 nM
NCI-H226 lung
  TGI: 3080 nM
SK-OV-3 ovarian
  TGI: 6270 nM
HOP-62 NSCLC
  TGI: 2560 nM
SF-268 CNS
  TGI: 1300 nM
K-562 leukemia
  TGI: 3310 nM
UO-31 renal
  TGI: 3280 nM
A498 renal
  TGI: 3150 nM
EKVX NSCLC
  TGI: 1600 nM
MDA-MB-435
  TGI: 329 nM
SN12C renal
  TGI: 687 nM
OVCAR-3 ovarian
  TGI: 432 nM
M14 melanoma
  TGI: 365 nM
OVCAR-5 ovarian
  TGI: 1480 nM
HT29 colon
  TGI: 1780 nM
NCI-H23 lung
  TGI: 2760 nM
SK-MEL-28 melanoma
  TGI: 1160 nM
OVCAR-4 ovarian
  TGI: 2020 nM
NCI-H460 lung
  TGI: 1430 nM
OVCAR-8 ovarian
  TGI: > 100000 nM
RPMI-8226 leukemia
  TGI: 468 nM
NCI-H522 lung
  TGI: 1300 nM
HCT-116 colon
  TGI: 510 nM
SK-MEL-5 melanoma
  TGI: 400 nM
SNB-75 CNS
  TGI: 1930 nM
SK-MEL-2 melanoma
  TGI: 427 nM
LOX IMVI melanoma
  TGI: 810 nM
UACC-257 melanoma
  TGI: 1880 nM
HCT-15 colon
  TGI: > 100000 nM
PC-3 prostate
  TGI: 1080 nM
MALME-3M melanoma
  TGI: 181 nM
T-47D breast
  TGI: 3520 nM
HCC-2998 colon
  TGI: 484 nM
COLO 205 colon
  TGI: 498 nM
DU-145 prostate
  TGI: 2540 nM
SW-620 colon
  TGI: 2720 nM
SNB-19 CNS
  TGI: 2270 nM
UACC-62 melanoma
  TGI: 699 nM
SF-295 CNS
  TGI: 1040 nM
HL-60(TB) leukemia
  TGI: 1380 nM
IGROV1 ovarian
  TGI: 671 nM
U251 CNS
  TGI: 1470 nM
MCF7 breast
  TGI: 834 nM
KM12 colon
  TGI: 636 nM
RXF 393 renal
  TGI: 1260 nM
A549 NSCLC
  TGI: 2700 nM
CCRF-CEM leukemia
  TGI: 2270 nM
MOLT-4 leukemia
  TGI: 613 nM
TK-10 renal
  TGI: 2720 nM
ACHN renal
  TGI: 4080 nM

## C#C/C=C\CCCC/C=C\C#CC#CCCCC#CC#C[C@H](COS(=O)(=O)O)OS(=O)(=O)O
SF-539 CNS
  TGI: > 100000 nM
SR leukemia
  TGI: > 100000 nM
786-0 renal
  TGI: > 100000 nM
MDA-N
  TGI: > 100000 nM
BT-549 breast
  TGI: > 100000 nM
NCI/ADR-RES ovarian
  TGI: > 100000 nM
HS 578T breast
  TGI: > 100000 nM
CAKI-1 renal
  TGI: > 100000 nM
HOP-92 NSCLC
  TGI: > 100000 nM
HOP-62 NSCLC
  TGI: > 100000 nM
SF-268 CNS
  TGI: > 100000 nM
UO-31 renal
  TGI: > 100000 nM
EKVX NSCLC
  TGI: > 100000 nM
MDA-MB-435
  TGI: > 100000 nM
SN12C renal
  TGI: > 100000 nM
MDA-MB-231 breast
  TGI: > 100000 nM
OVCAR-3 ovarian
  TGI: > 100000 nM
M14 melanoma
  TGI: > 100000 nM
OVCAR-5 ovarian
  TGI: > 100000 nM
HT29 colon
  TGI: > 100000 nM
NCI-H23 lung
  TGI: > 100000 nM
SK-MEL-28 melanoma
  TGI: > 100000 nM
OVCAR-4 ovarian
  TGI: > 100000 nM
NCI-H460 lung
  TGI: > 100000 nM
OVCAR-8 ovarian
  TGI: > 100000 nM
RPMI-8226 leukemia
  TGI: > 100000 nM
NCI-H522 lung
  TGI: > 100000 nM
HCT-116 colon
  TGI: > 100000 nM
SK-MEL-5 melanoma
  TGI: > 100000 nM
SNB-75 CNS
  TGI: > 100000 nM
SK-MEL-2 melanoma
  TGI: > 100000 nM
LOX IMVI melanoma
  TGI: > 100000 nM
UACC-257 melanoma
  TGI: > 100000 nM
HCT-15 colon
  TGI: > 100000 nM
PC-3 prostate
  TGI: > 100000 nM
T-47D breast
  TGI: > 100000 nM
HCC-2998 colon
  TGI: > 100000 nM
COLO 205 colon
  TGI: > 100000 nM
DU-145 prostate
  TGI: > 100000 nM
SW-620 colon
  TGI: > 100000 nM
SNB-19 CNS
  TGI: > 100000 nM
UACC-62 melanoma
  TGI: > 100000 nM
SF-295 CNS
  TGI: > 100000 nM
HL-60(TB) leukemia
  TGI: > 100000 nM
IGROV1 ovarian
  TGI: > 100000 nM
U251 CNS
  TGI: > 100000 nM
MCF7 breast
  TGI: > 100000 nM
KM12 colon
  TGI: > 100000 nM
A549 NSCLC
  TGI: > 100000 nM
CCRF-CEM leukemia
  TGI: > 100000 nM
MOLT-4 leukemia
  TGI: > 100000 nM
TK-10 renal
  TGI: > 100000 nM
ACHN renal
  TGI: > 100000 nM
